# Measured values taken from patent publication US7652047B2, “Phenylamino isothiazole carboxamidines as MEK inhibitors” (Ardea Biosciences, Inc., priority 2005, dated 2010).
# Target: T1, MEK1^CA (human GST-MEK1, constitutively active, Ser218Asp and Ser222Asp) (Homo sapiens, UniProt Q02750, S218D/S222D)
# T1 construct: GST; made in house; host or cells: Escherichia coli
# Test: MEK1 enzymatic activity assay (MEK1^CA / ERK2 / MBP, [γ-33P]ATP incorporation)
# Format: biochemical
# Details: Table 1, compounds of formula I; read-out: Avg IC50
# Outline: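 Cascade assay: 25 µl reactions with 0.002 nmol E. coli-expressed GST-MEK1 S218D/S222D, 0.02 nmol His-tagged mouse ERK2, 0.25 nmol MBP, 0.25 nmol unlabeled ATP and 0.1 µCi [γ-33P]ATP. Compound preincubated 30 min at ambient temperature with MEK1/ERK2; stopped with TCA, 33P-labelled protein filter-captured and scintillation-counted.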
# T1 sequence (Q02750 whole entry S218D/S222D): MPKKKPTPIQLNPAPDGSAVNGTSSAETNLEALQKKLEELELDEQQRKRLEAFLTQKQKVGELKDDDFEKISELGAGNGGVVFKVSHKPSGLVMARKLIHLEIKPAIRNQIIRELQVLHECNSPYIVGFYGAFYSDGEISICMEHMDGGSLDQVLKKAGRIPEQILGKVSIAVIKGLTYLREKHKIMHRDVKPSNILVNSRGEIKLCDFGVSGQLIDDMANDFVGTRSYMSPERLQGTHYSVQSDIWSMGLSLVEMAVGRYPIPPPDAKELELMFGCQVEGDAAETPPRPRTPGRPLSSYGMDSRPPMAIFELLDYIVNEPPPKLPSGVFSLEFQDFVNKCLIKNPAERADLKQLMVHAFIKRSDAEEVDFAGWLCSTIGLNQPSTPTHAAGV
row,Compound,IC50
1,CC(CO)NC(=N)c1c(O)nsc1Nc1ccc(Oc2ccc(Br)cc2)c(F)c1 (stereo not drawn) [compound 333],0.001 to 0.1 µM
2,Cc1cc(Oc2ccccc2)ccc1Nc1snc(O)c1C(=N)NC(C)C [compound 334],0.001 to 0.1 µM
3,Cc1cc(Oc2ccccc2)ccc1Nc1snc(O)c1C(=N)NC(C)CO (stereo not drawn) [compound 335],0.001 to 0.1 µM
4,CC(C)NC(=N)c1c(O)nsc1Nc1ccc(Oc2cccnc2)c(Cl)c1 [compound 336],> 0.5 µM
5,CC(CO)NC(=N)c1c(O)nsc1Nc1ccc(Oc2ccc(Br)c3ccccc23)cc1 (stereo not drawn) [compound 337],0.001 to 0.1 µM
6,CC(CO)NC(=N)c1c(O)nsc1Nc1ccc(Oc2cccc3ccccc23)cc1 (stereo not drawn) [compound 338],0.001 to 0.1 µM
7,CC(C)NC(=N)c1c(O)nsc1Nc1ccc(Oc2ccc(Br)c3ccccc23)cc1 [compound 339],0.001 to 0.1 µM
8,CC(C)NC(=N)c1c(O)nsc1Nc1ccc(Oc2cccc3ccccc23)cc1 [compound 340],0.001 to 0.1 µM
9,CC(C)NC(=N)c1c(O)nsc1Nc1ccc(Oc2cccc(Cl)c2Cl)cc1 [compound 341],0.001 to 0.1 µM
10,Cc1cccc(Cl)c1Oc1ccc(Nc2snc(O)c2C(=N)NC(C)CO)cc1 (stereo not drawn) [compound 343],> 0.5 µM
11,Cc1cccc(Cl)c1Oc1ccc(Nc2snc(O)c2C(=N)NC(C)C)cc1 [compound 344],> 0.5 µM
12,Cc1cccc(Oc2ccc(Nc3snc(O)c3C(=N)NC(C)C)cc2)c1C [compound 345],0.001 to 0.1 µM
13,Cc1cccc(Oc2ccc(Nc3snc(O)c3C(=N)NC(C)CO)cc2)c1C (stereo not drawn) [compound 346],0.001 to 0.1 µM
14,Cc1ccc(F)c(Oc2ccc(Nc3snc(O)c3C(=N)NC(C)C)cc2)c1 [compound 347],0.001 to 0.1 µM
15,Cc1ccc(F)c(Oc2ccc(Nc3snc(O)c3C(=N)NC(C)CO)cc2)c1 (stereo not drawn) [compound 348],0.001 to 0.1 µM
16,CC(C)NC(=N)c1c(O)nsc1Nc1ccc(Oc2cc(F)ccc2F)cc1 [compound 349],0.001 to 0.1 µM
17,CC(CO)NC(=N)c1c(O)nsc1Nc1ccc(Oc2cc(F)ccc2F)cc1 (stereo not drawn) [compound 350],0.001 to 0.1 µM
18,CC(C)NC(=N)c1c(O)nsc1Nc1ccc(Oc2cccc(C(F)(F)F)c2F)cc1 [compound 353],0.001 to 0.1 µM
19,CC(C)NC(=N)c1c(O)nsc1Nc1ccc(Oc2cc(C(F)(F)F)ccc2F)cc1 [compound 355],0.001 to 0.1 µM
20,CC(C)NC(=N)c1c(O)nsc1Nc1ccc(Oc2ccccc2F)cc1 [compound 356],0.001 to 0.1 µM
21,CC(C)NC(=N)c1c(O)nsc1Nc1ccc(Oc2ccc(F)cc2F)cc1 [compound 357],0.001 to 0.1 µM
22,CC(C)NC(=N)c1c(O)nsc1Nc1ccc(Oc2cc(F)cc(C(F)(F)F)c2)cc1 [compound 358],0.1 to 0.5 µM
23,CC(CO)NC(=N)c1c(O)nsc1Nc1ccc(Oc2ccc(Cl)cc2)c(Cl)c1 (stereo not drawn) [compound 359],0.1 to 0.5 µM

row,Compound,IC50
1,CC(C)NC(=N)c1c(O)nsc1Nc1ccc(Oc2ccc(Cl)cc2)c(Cl)c1 [compound 361],0.1 to 0.5 µM
2,CC(CO)NC(=N)c1c(O)nsc1Nc1ccc(Oc2cccc(F)c2)c(F)c1 (stereo not drawn) [compound 362],0.001 to 0.1 µM
3,CC(C)NC(=N)c1c(O)nsc1Nc1ccc(Oc2cccc(F)c2)c(F)c1 [compound 363],> 0.5 µM
4,CC(C)NC(=N)c1c(O)nsc1Nc1ccc(Oc2cccc(C(F)(F)F)c2Cl)c(Cl)c1 [compound 364],0.001 to 0.1 µM
5,CC(C)NC(=N)c1c(O)nsc1Nc1ccc(Oc2cccc(Cl)c2F)cc1 [compound 366],0.001 to 0.1 µM
6,CC(C)NC(=N)c1c(O)nsc1Nc1ccc(Oc2cc(Cl)ccc2Cl)c(F)c1 [compound 367],0.001 to 0.1 µM
7,CC(C)NC(=N)c1c(O)nsc1Nc1ccc(Oc2ccc(F)cc2Cl)c(F)c1 [compound 369],0.001 to 0.1 µM
8,CC(CO)NC(=N)c1c(O)nsc1Nc1ccc(Oc2ccc(F)cc2Cl)c(F)c1 (stereo not drawn) [compound 370],0.001 to 0.1 µM
9,CC(CO)NC(=N)c1c(O)nsc1Nc1ccc(Oc2ccccc2F)cc1 (stereo not drawn) [compound 372],0.1 to 0.5 µM
10,CC(C)NC(=N)c1c(O)nsc1Nc1ccc(Oc2cccc(C(F)(F)F)c2Cl)c(F)c1 [compound 373],0.001 to 0.1 µM
11,CC(CO)NC(=N)c1c(O)nsc1Nc1ccc(Oc2ccc(Cl)cc2Cl)c(F)c1 (stereo not drawn) [compound 374],0.001 to 0.1 µM
12,CC(CO)NC(=N)c1c(O)nsc1Nc1ccc(Oc2ccc(C(F)(F)F)cc2)cc1 (stereo not drawn) [compound 377],> 0.5 µM
13,CC(CO)NC(=N)c1c(O)nsc1Nc1ccc(Oc2ccc(C(F)(F)F)cc2)c(F)c1 (stereo not drawn) [compound 378],0.1 to 0.5 µM
14,Cc1cc(Nc2snc(O)c2C(=N)NC(C)C)ccc1Oc1cc(F)ccc1Cl [compound 380],0.1 to 0.5 µM
15,CC(C)NC(=N)c1c(O)nsc1Nc1ccc(Oc2cc(F)ccc2Cl)c(Cl)c1 [compound 382],0.001 to 0.1 µM
16,CC(C)NC(=N)c1c(O)nsc1Nc1ccc(Oc2cccc(Cl)c2Cl)c(Cl)c1 [compound 383],0.001 to 0.1 µM
17,CC(C)NC(=N)c1c(O)nsc1Nc1ccc(Oc2cc(C(F)(F)F)ccc2Cl)cc1F [compound 384],0.1 to 0.5 µM
18,CC(CO)N=C(N)c1c(O)nsc1Nc1ccc(Oc2cc(C(F)(F)F)ccc2I)cc1 (stereo not drawn) [compound 385],0.001 to 0.1 µM
19,Cc1cc(Nc2snc(O)c2C(=N)NC(C)CO)ccc1Oc1ccc(C(F)(F)F)cc1 (stereo not drawn) [compound 386],> 0.5 µM
20,CC(C)NC(=N)c1c(O)nsc1Nc1ccc(Oc2ccc(F)cc2)c(Cl)c1 [compound 387],0.1 to 0.5 µM
21,CC(C)NC(=N)c1c(O)nsc1Nc1ccc(Oc2ccc(C(F)(F)F)cc2)c(Cl)c1 [compound 388],0.1 to 0.5 µM
22,Cc1cc(Nc2snc(O)c2C(=N)NC(C)C)ccc1Oc1ccc(C(F)(F)F)cc1 [compound 389],> 0.5 µM

# Further lines, results first:
row,IC50,Compound
1,0.1 to 0.5 µM,CC(C)NC(=N)c1c(O)nsc1Nc1ccc(Oc2ccc(C(F)(F)F)cc2)c(F)c1 [compound 390]
2,0.1 to 0.5 µM,CC(C)NC(=N)c1c(O)nsc1Nc1ccc(Oc2ccc(C(F)(F)F)cc2)cc1 [compound 391]
3,0.1 to 0.5 µM,CC(CO)NC(=N)c1c(O)nsc1Nc1ccc(Oc2ccc(F)cc2)c(Cl)c1 (stereo not drawn) [compound 392]
4,0.001 to 0.1 µM,CC(CO)NC(=N)c1c(O)nsc1Nc1ccc(Oc2ccc(F)cc2)c(F)c1 (stereo not drawn) [compound 393]
5,0.001 to 0.1 µM,CC(CO)NC(=N)c1c(O)nsc1Nc1ccc(Oc2cc(C(F)(F)F)ccc2Cl)cc1F (stereo not drawn) [compound 394]
6,0.1 to 0.5 µM,CC(C)NC(=N)c1c(O)nsc1Nc1ccc(Oc2ccc(F)cc2)c(F)c1 [compound 395]
7,0.1 to 0.5 µM,CC(CO)NC(=N)c1c(O)nsc1Nc1ccc(Oc2ccc(C(F)(F)F)cc2)c(Cl)c1 (stereo not drawn) [compound 396]
8,> 0.5 µM,Cc1cc(Nc2snc(O)c2C(=N)NC(C)C)ccc1Oc1ccc(F)cc1 [compound 397]
9,0.1 to 0.5 µM,CC(C)NC(=N)c1c(O)nsc1Nc1ccc(Oc2ccc(F)cc2F)c(F)c1 [compound 398]
10,0.001 to 0.1 µM,Cc1cc(Oc2ccc(F)cc2Cl)ccc1Nc1snc(O)c1C(=N)NC(C)C [compound 401]
11,0.001 to 0.1 µM,Cc1cc(Oc2ccc(Cl)cc2F)ccc1Nc1snc(O)c1C(=N)NC(C)C [compound 402]
12,0.001 to 0.1 µM,CC(C)NC(=N)c1c(O)nsc1Nc1ccc(Oc2ccc(F)cc2Cl)cc1C(F)(F)F [compound 407]
13,0.001 to 0.1 µM,CC(CO)NC(=N)c1c(O)nsc1Nc1ccc(Oc2ccc(F)cc2Cl)cc1C(F)(F)F (stereo not drawn) [compound 408]
14,0.001 to 0.1 µM,CCOC(=O)c1cccc(Oc2ccc(Nc3snc(O)c3C(=N)NC(C)C)cc2)c1 [compound 410]
15,0.1 to 0.5 µM,N=C(NCCO)c1c(O)nsc1Nc1ccc(Oc2cc(F)cc(F)c2)cc1 [compound 411]
16,0.001 to 0.1 µM,N=C(NCCN1CCNCC1)c1c(O)nsc1Nc1ccc(Oc2cc(F)cc(F)c2)cc1 [compound 412]
17,0.1 to 0.5 µM,N=C(NCCN1CCOCC1)c1c(O)nsc1Nc1ccc(Oc2cc(F)cc(F)c2)cc1 [compound 413]
18,0.001 to 0.1 µM,N=C(NCC1CCCO1)c1c(O)nsc1Nc1ccc(Oc2cc(F)cc(F)c2)cc1 (stereo not drawn) [compound 414]

row,IC50,Compound
1,0.001 to 0.1 µM,N=C(NCc1ccccn1)c1c(O)nsc1Nc1ccc(Oc2cc(F)cc(F)c2)cc1 [compound 415]
2,0.1 to 0.5 µM,N=C(NC1CC1)c1c(O)nsc1Nc1ccc(Oc2cc(F)cc(F)c2)cc1 [compound 416]
3,> 0.5 µM,N=C(c1c(O)nsc1Nc1ccc(Oc2cc(F)cc(F)c2)cc1)N1CCCCC1 [compound 417]
4,0.1 to 0.5 µM,CN(C)CCNC(=N)c1c(O)nsc1Nc1ccc(Oc2cc(F)cc(F)c2)cc1 [compound 418]
5,> 0.5 µM,CN1CCN(C(=N)c2c(O)nsc2Nc2ccc(Oc3cc(F)cc(F)c3)cc2)CC1 [compound 419]
6,> 0.5 µM,N=C(c1c(O)nsc1Nc1ccc(Oc2cc(F)cc(F)c2)cc1)N1CCOCC1 [compound 420]
7,0.001 to 0.1 µM,CC(C)N(O)C(=N)c1c(O)nsc1Nc1ccc(Oc2cc(F)cc(F)c2)cc1 [compound 421]
8,0.001 to 0.1 µM,CC(O)CNC(=N)c1c(O)nsc1Nc1ccc(Oc2cc(F)cc(F)c2)cc1 (stereo not drawn) [compound 422]
9,0.001 to 0.1 µM,N=C(NCC1CCCCC1)c1c(O)nsc1Nc1ccc(Oc2cc(F)cc(F)c2)cc1 [compound 423]
10,0.001 to 0.1 µM,N=C(NCc1ccccc1)c1c(O)nsc1Nc1ccc(Oc2cc(F)cc(F)c2)cc1 [compound 424]
11,0.1 to 0.5 µM,CN(C)CCNC(=N)c1c(O)nsc1Nc1ccc(Oc2ccc(Cl)cc2Cl)cc1 [compound 425]
12,0.001 to 0.1 µM,N=C(NCCN1CCOCC1)c1c(O)nsc1Nc1ccc(Oc2ccc(Cl)cc2Cl)cc1 [compound 426]
13,> 0.5 µM,N=C(c1c(O)nsc1Nc1ccc(Oc2ccc(Cl)cc2Cl)cc1)N1CCCCC1 [compound 427]
14,0.1 to 0.5 µM,N=C(NCCN1CCNCC1)c1c(O)nsc1Nc1ccc(Oc2ccc(Cl)cc2Cl)cc1 [compound 428]
15,0.1 to 0.5 µM,CC(C)NC(=N)c1c(O)nsc1Nc1ccc(Oc2cccc(F)c2F)nc1 [compound 429]
16,0.1 to 0.5 µM,CC(C)NC(=N)c1c(O)nsc1Nc1ccc(Oc2cccc(C(F)(F)F)c2)nc1 [compound 430]
17,0.001 to 0.1 µM,CC(C)NC(=N)c1c(O)nsc1Nc1ccc(Oc2cc(Cl)ccc2Cl)nc1 [compound 431]
18,0.1 to 0.5 µM,CC(CO)NC(=N)c1c(O)nsc1Nc1ccc(Oc2cccc(F)c2F)nc1 (stereo not drawn) [compound 432]
